Key:
FADD−/− Jurkat cells = assay: Necroptosis inhibition assay, TNF-α-induced necroptosis (CellTiter-Glo 2.0); format: cell-based, human; settings: TNF-α 15 ng/mL; for Necroptosis inhibition assay (Rescue %) 1 μM: compound 1 μM; for Necroptosis inhibition assay (Rescue %) 10 μM: compound 10 μM
In short: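 Luminescent ATP measurement gave viability, from which cytotoxicity and necroptosis inhibition rate were derived. Before that, cells (5.0×10^5 cells/mL) saw compound at 0.1, 1 or 10 μM final for 30 minutes at room temperature, then TNF-α (15 ng/mL final) for 20 to 24 hours at 37° C.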

MLKL [1] = biological target: T1, MLKL (Homo sapiens, UniProt Q8NB16); assay: MLKL degradation assay in HepG2 cell line (western blot); format: cell-based; parameters: endogenous in cells; host or cells: HepG2 or HaCaT; settings: cell line not given; for Degradation assay (Degradation %) 1 μM: compound 1 μM; for Degradation assay (Degradation %) 10 μM: compound 10 μM
T1 sequence (Q8NB16 1-471): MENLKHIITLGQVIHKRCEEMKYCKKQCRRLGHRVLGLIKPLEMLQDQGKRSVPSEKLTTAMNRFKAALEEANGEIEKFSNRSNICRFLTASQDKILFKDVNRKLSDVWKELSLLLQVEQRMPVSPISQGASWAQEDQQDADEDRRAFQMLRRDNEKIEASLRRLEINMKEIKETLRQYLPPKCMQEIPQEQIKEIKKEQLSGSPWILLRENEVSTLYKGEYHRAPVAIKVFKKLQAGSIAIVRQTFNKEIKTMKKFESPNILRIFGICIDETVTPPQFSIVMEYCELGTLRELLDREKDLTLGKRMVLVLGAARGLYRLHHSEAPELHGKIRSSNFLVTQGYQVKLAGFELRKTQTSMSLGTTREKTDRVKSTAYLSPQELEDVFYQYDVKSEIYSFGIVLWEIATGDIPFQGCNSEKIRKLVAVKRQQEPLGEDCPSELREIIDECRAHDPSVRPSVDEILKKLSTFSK
In short: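 Cells seeded, next day medium swapped for compound-containing medium (final 1 or 10 μM) and incubated 20-24 h at 37 °C. Lysates in RIPA with protease/phosphatase inhibitors were protein-matched by BCA, run on SDS-PAGE and immunoblotted for MLKL.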

MLKL [2] = biological target: T1, MLKL; assay: Measurement of binding affinity with MLKL receptor (competitive binding assay, Kd); parameters: made in house; host or cells: HEK 293 cell line (T7 phage in E. coli BL21-derived host is also described)
In short: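 HEK 293-expressed, DNA-tagged MLKL; ligand beads blocked with biotin and SeaBlock/1% BSA/0.05% Tween 20/1 mM DTT buffer. Cpd from 111× DMSO stock, 0.9% DMSO final. Eluted kinase by qPCR → Kd.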

Compound	Degradation assay (Degradation %) 1 μM (MLKL [1]) [%]	Degradation assay (Degradation %) 10 μM (MLKL [1]) [%]	Kd (MLKL [2]) [nM]	Necroptosis inhibition assay (Rescue %) 1 μM (FADD−/− Jurkat cells) [%]	Necroptosis inhibition assay (Rescue %) 10 μM (FADD−/− Jurkat cells) [%]
Nc1ncc(-c2cnn(C3CCN(CCC4CCN(C(=O)CNc5ccc6c(c5)C(=O)N(C5CCC(=O)NC5=O)C6=O)CC4)CC3)c2)cc1C(=O)OC(C(=O)Nc1ccc(F)cc1)c1ccccc1 (stereo not drawn) [TDH-302, 2-((4-fluorophenyl)amino)-2-oxo-1-phenylethyl 2-amino-5-(1-(1-(2-(1-((2-(2,6-dioxopiperidin-3-yl)-1,3-dioxoisoindolin-5-yl)glycyl)piperidin-4-yl)ethyl)piperidin-4-yl)-1H-pyrazol-4-yl)nicotinate]	96.64	85.06	8.6	54.15	51.56
Nc1ncc(-c2cnn(C3CCN(CCC4CCN(C(=O)CNc5cccc6c5C(=O)N(C5CCC(=O)NC5=O)C6=O)CC4)CC3)c2)cc1C(=O)OC(C(=O)Nc1ccc(F)cc1)c1ccccc1 (stereo not drawn) [TDH-303, 2-((4-fluorophenyl)amino)-2-oxo-1-phenylethyl 2-amino-5-(1-(1-(2-(1-((2-(2,6-dioxopiperidin-3-yl)-1,3-dioxoisoindolin-4-yl)glycyl)piperidin-4-yl)ethyl)piperidin-4-yl)-1H-pyrazol-4-yl)nicotinate]	82.82	82.05	13	10.34	17.69
Nc1ncc(-c2cnn(C3CCN(CC4CN(C(=O)CNc5cccc6c5C(=O)N(C5CCC(=O)NC5=O)C6=O)CCO4)CC3)c2)nc1C(=O)OC(C(=O)Nc1ccc(F)cc1)c1ccccc1 (stereo not drawn) [TDH-306, 2-((4-fluorophenyl)amino)-2-oxo-1-phenylethyl 3-amino-6-(1-(1-((4-((2-(2,6-dioxopiperidin-3-yl)-1,3-dioxoisoindolin-4-yl)glycyl)morpholin-2-yl)methyl)piperidin-4-yl)-1H-pyrazol-4-yl)pyrazine-2-carboxylate]	62.87	45.31	5.4	34.35	43.09
Nc1ncc(-c2cnn(C3CCN(CC4CN(c5ccc6c(c5)C(=O)N(C5CCC(=O)NC5=O)C6=O)CCO4)CC3)c2)nc1C(=O)OC(C(=O)Nc1ccc(F)cc1)c1ccccc1 (stereo not drawn) [TDH-311, 2-((4-fluorophenyl)amino)-2-oxo-1-phenylethyl 3-amino-6-(1-(1-((4-(2-(2,6-dioxopiperidin-3-yl)-1,3-dioxoisoindolin-5-yl)morpholin-2-yl)methyl)piperidin-4-yl)-1H-pyrazol-4-yl)pyrazine-2-carboxylate]	69.38	52.38	5.3	57.09	39.01
Cc1ncsc1-c1ccc(CNC(=O)[C@H]2C[C@H](O)CN2C(=O)[C@@H](NC(=O)CN2CCC(CCN3CCC(n4cc(-c5cnc(N)c(C(=O)OC(C(=O)Nc6ccc(F)cc6)c6ccccc6)n5)cn4)CC3)CC2)C(C)(C)C)cc1 (stereo partly drawn) [TDH-312, 2-((4-fluorophenyl)amino)-2-oxo-1-phenylethyl 3-amino-6-(1-(1-(2-(1-(2-(((S)-1-((2R,4S)-4-hydroxy-2-((4-(4-methylthiazol-5-yl)benzyl)carbamoyl)pyrrolidin-1-yl)-3,3-dimethyl-1-oxobutan-2-yl)amino)-2-oxoethyl)piperidin-4-yl)ethyl)piperidin-4-yl)-1H-pyrazol-4-yl)pyrazine-2-carboxylate]	59.87	40.64	6.9	75.61	

Stronger by Kd (MLKL [2]), values ahead:

Degradation assay (Degradation %) 1 μM (MLKL [1]) [%]	Degradation assay (Degradation %) 10 μM (MLKL [1]) [%]	Kd (MLKL [2]) [nM]	Compound	Necroptosis inhibition assay (Rescue %) 1 μM (FADD−/− Jurkat cells) [%]	Necroptosis inhibition assay (Rescue %) 10 μM (FADD−/− Jurkat cells) [%]
85.02	84.91	2.9	Nc1ncc(-c2cnn(C3CCN(CC4CN(C(=O)C5CCN(c6cccc7c6C(=O)N(C6CCC(=O)NC6=O)C7=O)CC5)CCO4)CC3)c2)nc1C(=O)OC(C(=O)Nc1ccc(F)cc1)c1ccccc1 (stereo not drawn) [TDH-304, 2-((4-fluorophenyl)amino)-2-oxo-1-phenylethyl 3-amino-6-(1-(1-((4-(1-(2-(2,6-dioxopiperidin-3-yl)-1,3-dioxoisoindolin-4-yl)piperidine-4-carbonyl)morpholin-2-yl)methyl)piperidin-4-yl)-1H-pyrazol-4-yl)pyrazine-2-carboxylate]	38.26	35.22
72.47	50.39	2.8	Nc1ncc(-c2cnn(C3CCN(CC4CN(C(=O)C5CCN(c6ccc7c(c6)C(=O)N(C6CCC(=O)NC6=O)C7=O)CC5)CCO4)CC3)c2)nc1C(=O)OC(C(=O)Nc1ccc(F)cc1)c1ccccc1 (stereo not drawn) [TDH-305, 2-((4-fluorophenyl)amino)-2-oxo-1-phenylethyl 3-amino-6-(1-(1-((4-(1-(2-(2,6-dioxopiperidin-3-yl)-1,3-dioxoisoindolin-5-yl)piperidine-4-carbonyl)morpholin-2-yl)methyl)piperidin-4-yl)-1H-pyrazol-4-yl)pyrazine-2-carboxylate]	66.84	52.42
57.38	24.79	1.6	Nc1ncc(-c2cnn(C3CCN(CC4CN(C(=O)CNc5ccc6c(c5)C(=O)N(C5CCC(=O)NC5=O)C6=O)CCO4)CC3)c2)nc1C(=O)OC(C(=O)Nc1ccc(F)cc1)c1ccccc1 (stereo not drawn) [TDH-307, 2-((4-fluorophenyl)amino)-2-oxo-1-phenylethyl 3-amino-6-(1-(1-((4-((2-(2,6-dioxopiperidin-3-yl)-1,3-dioxoisoindolin-5-yl)glycyl)morpholin-2-yl)methyl)piperidin-4-yl)-1H-pyrazol-4-yl)pyrazine-2-carboxylate]	83.43	73.58
55.12	69.64	1.7	Nc1ncc(-c2cnn(C3CCN(CC4CN(C(=O)COc5cccc6c5C(=O)N(C5CCC(=O)NC5=O)C6=O)CCO4)CC3)c2)nc1C(=O)OC(C(=O)Nc1ccc(F)cc1)c1ccccc1 (stereo not drawn) [TDH-308, 2-((4-fluorophenyl)amino)-2-oxo-1-phenylethyl 3-amino-6-(1-(1-((4-(2-((2-(2,6-dioxopiperidin-3-yl)-1,3-dioxoisoindolin-4-yl)oxy)acetyl)morpholin-2-yl)methyl)piperidin-4-yl)-1H-pyrazol-4-yl)pyrazine-2-carboxylate]	76.28	56.73
76.12	77.55	2.2	Nc1ncc(-c2cnn(C3CCN(CC4CN(C(=O)COc5ccc6c(c5)C(=O)N(C5CCC(=O)NC5=O)C6=O)CCO4)CC3)c2)nc1C(=O)OC(C(=O)Nc1ccc(F)cc1)c1ccccc1 (stereo not drawn) [TDH-309, 2-((4-fluorophenyl)amino)-2-oxo-1-phenylethyl 3-amino-6-(1-(1-((4-(2-((2-(2,6-dioxopiperidin-3-yl)-1,3-dioxoisoindolin-5-yl)oxy)acetyl)morpholin-2-yl)methyl)piperidin-4-yl)-1H-pyrazol-4-yl)pyrazine-2-carboxylate]	75.1	78.37
35.97	27.19	2.6	Nc1ncc(-c2cnn(C3CCN(CC4CN(c5cccc6c5C(=O)N(C5CCC(=O)NC5=O)C6=O)CCO4)CC3)c2)nc1C(=O)OC(C(=O)Nc1ccc(F)cc1)c1ccccc1 (stereo not drawn) [TDH-310, 2-((4-fluorophenyl)amino)-2-oxo-1-phenylethyl 3-amino-6-(1-(1-((4-(2-(2,6-dioxopiperidin-3-yl)-1,3-dioxoisoindolin-4-yl)morpholin-2-yl)methyl)piperidin-4-yl)-1H-pyrazol-4-yl)pyrazine-2-carboxylate]	40.08	41.99
